Measured values taken from patent US20260115197A1, “TREATMENT COMPOSITION FOR INHIBITING SYSTEMIC SCLEROSIS VIMENTIN MUTANT PROTEIN ACTIVITY BY USING STAT6 INHIBITOR” (THE CATHOLIC UNIVERSITY OF KOREA INDUSTRY-ACADEMIC …, priority 2022, published 2026).

Experiments:
[1] = tested on: Vimentin antigen-specific systemic sclerosis animal model; assay: Skin fibrosis and CSV expression in Vimentin antigen-specific systemic sclerosis animal model; format: in vivo, SKG mouse; settings: 10 mg/kg subcutaneously three times a week until week 5; vs vim SSc group
Method: In systemic sclerosis, Vimentin increased the disease symptom activity of systemic sclerosis, and thus, the effect of the STAT6 inhibitor was evaluated in a Vimentin antigen-specific systemic sclerosis animal model. Specifically, systemic sclerosis was induced by immunizing a 8-week-old SKG mouse with a Vimentin protein as an antigen and then subcutaneously injecting 100 μL of Bleomycin (BLM) six times a week for two weeks. Thereafter, on week 2 of systemic sclerosis induction, the mouse was secondary immunized with the Vimentin protein, and then subcutaneously injected with the STAT6 inhibitor of the present disclosure three times a week at a concentration of 10 mg/kg until week 5 from the starting of the experiment. Thereafter, at the end point of the experiment, the mouse was humanely sacrificed, and skin and lung tissues were obtained, and then the thickness of the skin dermal layer was identified by H&E staining, […] The specific experimental process was illustrated in FIG. 9, and as a control group, a Vimentin antigen-specific systemic sclerosis animal model (vim SSc group) with increased disease symptom activity by a Vimentin antigen was used.

[2] = tested on: CD103 and CD8 positive cells (CD8 TRM); assay: IL-17 or IFNγ expression CD103 and CD8 positive cells (CD8 TRM) in skin of Vimentin antigen-specific systemic sclerosis animal model, confocal microscope; format: in vivo, SKG mouse; settings: 10 mg/kg subcutaneously three times a week; vs vim SSc group
Method: In systemic sclerosis, Vimentin increased the disease symptom activity of systemic sclerosis, and thus, the effect of the STAT6 inhibitor was evaluated in a Vimentin antigen-specific systemic sclerosis animal model. Specifically, systemic sclerosis was induced by immunizing a 8-week-old SKG mouse with a Vimentin protein as an antigen and then subcutaneously injecting 100 μL of Bleomycin (BLM) six times a week for two weeks. Thereafter, on week 2 of systemic sclerosis induction, the mouse was secondary immunized with the Vimentin protein, and then subcutaneously injected with the STAT6 inhibitor of the present disclosure three times a week at a concentration of 10 mg/kg until week 5 from the starting of the experiment. Thereafter, at the end point of the experiment, the mouse was humanely sacrificed, and skin and lung tissues were obtained, and then the thickness of the skin dermal layer was identified by H&E staining, and the expression of CSV in the lung tissue was identified by immunohistochemical staining. The specific experimental process was illustrated in FIG. 9, and as a control group, a Vimentin antigen-specific systemic sclerosis animal model (vim SSc group) with increased disease symptom activity by a Vimentin antigen was used. […]

M2 macrophages = assay: M2 macrophage activity in blood of bleomycin-induced systemic sclerosis animal model, flow cytometry; format: in vivo, B6 mouse; settings: 10 mg/kg orally daily; BLM-induced; vs Vehicle group
Method: (§1) To determine whether the STAT6 inhibitor of the present disclosure alleviated systemic sclerosis, a systemic sclerosis animal model was constructed. Specifically, a 2×2 cm area on the nape of the neck of the B6 mouse was shaved using a clipper, and then subcutaneously injected with 100 μL of PBS containing 50 μg of bleomycin (BLM) daily for 2 weeks to induce systemic sclerosis. One week after the start of BLM administration, 200 μL of vehicle solution (10% DMSO, 40% PEG300, 5% tween 80 and 45% Saline) containing the STAT6 inhibitor at a concentration of 10 mg/kg was orally administered daily. Thereafter, the blood from the mouse was collected on week 1 and week 5 after induction of systemic sclerosis, and the activity of M2 macrophages capable of inducing fibrosis from the collected blood was analyzed using flow cytometry. As a control group, a wild-type mouse (WT) and a Vehicle group that was induced with systemic sclerosis but not treated with a drug were used.

[3] = tested on: human dermal fibroblast line; assay: Expression of fibrosis genes in TGF-β-treated fibroblasts, real-time PCR; format: cell-based; settings: with 10 ng/ml TGF-β, 24 hours; vs TGF-β alone
Method: In order to identify the effect of STAT6 inhibition on systemic sclerosis of the present disclosure, inhibition of fibrosis genes of fibroblasts was identified. Specifically, a human dermal fibroblast line was treated with 10 ng/ml of TGF-β and […] of an STAT6 inhibitor and then cultured for 24 hours. Thereafter, the expression of fibrosis factors, TGF-β, Col1a1 (Collagen, type I, alpha 1), and α-SMA 10 (alpha smooth muscle actin), was identified by real-time PCR.

[4] = tested on: cell surface Vimentin (CSV) and fibrosis factors aSMA, Col1, IL-17; assay: Fibrosis factors and cell surface Vimentin in lung tissue of systemic sclerosis mouse, immunohistochemical staining; format: in vivo, B6 mouse; settings: 10 mg/kg orally daily, vs Vehicle group
Method: as §1
It was identified whether the STAT6 inhibition of the present disclosure inhibited cell surface Vimentin in the tissue. Specifically, the expression of fibrosis factors aSMA, Col1, and IL-17 and CSV-positive cells in the lung tissue obtained in Example 4-2 was identified by immunohistochemical staining.

[5] = tested on: systemic sclerosis animal model; assay: Pulmonary fibrosis in systemic sclerosis animal model, H&E staining; format: in vivo, B6 mouse; settings: 10 mg/kg orally daily; BLM-induced; vs Vehicle group
Method: as §1
It has been identified whether the STAT6 inhibition of the present disclosure inhibited pulmonary fibrosis in systemic sclerosis. Specifically, a lung tissue was obtained from the mouse sacrificed in the Example 4-1 above, and subjected to H&E staining to determine the histological score for pulmonary fibrosis.

[6] = tested on: systemic sclerosis animal model; assay: Skin fibrosis in systemic sclerosis animal model, H&E staining; format: in vivo, B6 mouse; settings: 10 mg/kg orally daily; BLM-induced; vs Vehicle group
Method: as §1
To determine whether the STAT6 inhibitor of the present disclosure alleviated systemic sclerosis, inhibition of skin fibrosis was identified. […]

[7] = tested on: pSTAT6 and CD8 positive T cells; assay: pSTAT6 and CD8 positive T cells in skin and lung tissues of systemic sclerosis mouse, confocal microscopy; format: in vivo, B6 mouse; settings: 10 mg/kg orally daily, vs Vehicle group
[8] = tested on: cell surface Vimentin (CSV) and fibrosis factors aSMA, Col1, IL-17; assay: Fibrosis factors and cell surface Vimentin in skin tissue of systemic sclerosis mouse, immunohistochemical staining; format: in vivo, B6 mouse; settings: 10 mg/kg orally daily, vs Vehicle group
Method: as §1
In autoimmune diseases, it has been reported that Vimentin played an important role in cell interaction and the function of the immune system, and mutated or natural-type Vimentin was involved in the inflammatory responses and the pathogenesis of various autoimmune diseases (Autoimmun Rev. 2018 September: 17 (9): 926-934. doi: 10.1016/j.autrev.2018.04.004. Epub 2018 Jul. 17.), and thus, even in systemic sclerosis, the effect of the STAT6 inhibitor on the expression pattern of cell surface Vimentin (CSV) was also identified. Specifically, the expression of fibrosis factors aSMA, Col1, and IL-17 and CSV-positive cells in the skin tissue obtained in Example 4-1 was identified by immunohistochemical staining.

spleen single cells = assay: Control of fibrosis-related immunocytes in TGF-β-treated spleen single cells, flow cytometry; format: cell-based, B6 mouse; settings: 10 nM, with 10 ng/ml TGF-β, 72 hours; vs TGF-β alone
Method: In order to identify an effect of inhibiting signal transducer and activator of transcription 6 (STAT6) on systemic sclerosis of the present disclosure, the control effect of immunocytes related to fibrosis was identified. Specifically, spleen single cells were obtained from a B6 mouse, treated with 10 ng/ml of transforming growth factor-β (TGF-β) and 10 nM of a STAT6 inhibitor (YM-341619, Chemical Formula 1), and then cultured for 72 hours. The expression of profibrotic T cells, M2 macrophages, and Treg related to systemic sclerosis was analyzed by flow cytometry. In addition, the expression ratio of M2 macrophages and M1 macrophages was identified to identify the control of immunocytes. As a control group, an untreated control group (Nil) and a group treated with TGF-β alone were used.

**Q.** `NC(=O)c1cnc(Nc2ccc(N3CCOCC3)cc2)nc1NCc1c(F)ccc(F)c1F` [STAT6 inhibitor, YM-341619] was tested. Which “expression of CSV in the skin tissue” value [1] did it give?
**A.** significantly reduced

**Q.** And the “thickness of the skin dermis layer” value [1]?
**A.** significantly reduced

**Q.** What about the “IFNγ expression CD103 and CD8 positive cells in skin tissue” value [2] of the same compound?
**A.** no change

**Q.** What about the “IL-17 expression CD103 and CD8 positive cells (CD8 TRM) in skin tissue” value [2] of the same compound?
**A.** significantly reduced

**Q.** And the “activity of M2 macrophages capable of inducing fibrosis in blood” value (M2 macrophages)?
**A.** significantly reduced

**Q.** And the “expression of fibrosis gene Col1a1” value [3]?
**A.** significantly decreased

**Q.** What about the “expression of fibrosis gene TGF-β” value [3] of the same compound?
**A.** significantly decreased

**Q.** What about the “expression of fibrosis gene α-SMA” value [3] of the same compound?
**A.** significantly decreased

**Q.** And the “expression of Col1 in lung tissue” value [4]?
**A.** significantly reduced

**Q.** What about the “expression of IL-17 in lung tissue” value [4] of the same compound?
**A.** significantly reduced

**Q.** What about the “expression of aSMA in lung tissue” value [4] of the same compound?
**A.** significantly reduced

**Q.** And the “number of CSV positive cells in lung tissue” value [4]?
**A.** significantly reduced

**Q.** What about the “histological score for pulmonary fibrosis” value [5] of the same compound?
**A.** significantly reduced

**Q.** And the “thickness of the skin dermal layer” value [6]?
**A.** significantly reduced

**Q.** What about the “expression of pSTAT6 and CD8 positive T cells in lung tissue” value ([7]; lung) of the same compound?
**A.** significantly reduced

**Q.** What about the “expression of pSTAT6 and CD8 positive T cells in skin tissue” value ([7]; skin) of the same compound?
**A.** significantly reduced

**Q.** And the “expression of Col1 in skin tissue” value [8]?
**A.** significantly reduced

**Q.** What about the “expression of IL-17 in skin tissue” value [8] of the same compound?
**A.** significantly reduced

**Q.** What about the “expression of aSMA in skin tissue” value [8] of the same compound?
**A.** significantly reduced

**Q.** What about the “number of CSV positive cells in skin tissue” value [8] of the same compound?
**A.** significantly reduced

**Q.** What about the M2/M1 expression ratio (spleen single cells) of the same compound?
**A.** significantly reduced

**Q.** What about the “expression of M2 macrophages” value (spleen single cells) of the same compound?
**A.** significantly reduced

**Q.** What about the “expression of Treg” value (spleen single cells) of the same compound?
**A.** significantly increased

**Q.** And the “expression of pro-fibrosis T cells (IL-4+ T cells and IL-4+ and IL-17+ T cells)” value (spleen single cells)?
**A.** significantly reduced
